# Experimental data reported in patent US11807644B2 (PMV Pharmaceuticals, Inc., priority 2020, dated 2023).
# Target: T1, recombinant His-tag Y220C p53 DBD protein (Homo sapiens, UniProt P04637, Y220C)
# T1 construct: recombinant His-tag Y220C p53 DBD protein (amino acids #˜94-312)
# Assay: In vitro DNA binding activity assay (TR-FRET): binding of His-tag Y220C p53 DBD to biotin-labeled consensus DNA
# Type: biochemical
# Details: SC150 = concentration to increase DNA binding by […], His-tag Y220C p53 DBD, biotin-labeled consensus DNA
# Procedure: DNA binding activity of the compounds was measured using a TR-FRET (Time-Resolved Fluorescence Resonance Energy Transfer) assay in which recombinant His-tag Y220C p53 DBD protein binds to biotin-labeled consensus DNA. Binding of recombinant His-tag Y220C p53 DBD protein and biotin-labeled consensus DNA was registered by the FRET (fluorescence resonance energy transfer) between allophycocyanin (APC) conjugated anti-His tag antibody and Europium-(Eu) conjugated Streptavidin.
# The compounds of TABLES 1-9 (2 mM stock in dimethylsulfoxide) were diluted 3-fold in series in dimethylsulfoxide. 1.2 μL of a compound solution was added to each well of 384-well polypropylene black plates (NUNC). Thirty μL per well of 181 nM recombinant His-tag Y220C p53 DBD protein (amino acids #˜94-312; SEQ ID NO: 1) and 6.1 nM of APC conjugated anti-His tag antibody (Columbia Biosciences) in ice-cold Assay Buffer 1 (50 mM Tris-HCl, pH 7.4, 75 mM KCl, 0.75 mM DTT and 0.2 mg/ml, BSA) were added. As a background control. 30 μL of Assay Buffer 1 containing 6.1 nM of APC anti-His antibody (No Y220C protein) was also added into a second set of serially diluted compound plates. The samples were spun by centrifuge at 1,200 rpm (Eppendorf 5810R Plate centrifuge) for 1 minute and incubated at room temperature (20° C.) for 15 min. The samples were then further incubated at either 27° C. or 29° C. for 60 min. […] The samples were spun by centrifuge at 1,200 rpm for 1 min and incubated at room temperature (20° C.) for 20 min. Assay signals were monitored by reading excitation at 340 nm, and emission fluorescence at 615 nm and 665 nm on an Envision® reader. Normalized TR-FRET (time-resolved fluorescence resonance energy transfer) assay signal (Rn) was calculated by the formula: Rn=[(A−Ba−C×(D−Bd))/(D−Bd)]×(D−Bd) Wherein: • A is the fluorescence intensity of the sample at 665 nm; • D is the fluorescence intensity of the sample at 615 nm; • Ba and Bd are plate backgrounds at 665 nm and 615 nm, respectively; and • Dc is the fluorescence intensity of 0.67 nM Eu-SA in the assay buffer at 615 nm.
# The cross-talk factor (C) was determined by the following formula: C=(Ac−Ba)/(Dc−Bd) wherein Ac is the fluorescence intensity of 0.67 nM Europium (Eu) conjugated Streptavidin in the assay buffer at 665 nm.
row,SMILES,Y220C SC150 (μM)
1,"CC(C)(C)n1cc(C(=O)NCc2nc(-c3cc4c(N[C@@H]5CCOC[C@@H]5F)cccc4n3CC(F)(F)F)no2)cn1 [Compound 497B, 1-tert-butyl-N-{[3-(4-{[(3R,4R)-3-fluorooxan-4-yl]amino}-1-(2,2,2-trifluoroethyl)-1H-indol-2-yl)-1,2,4-oxadiazol-5-yl]methyl}-1H-pyrazole-4-carboxamide]",* (* = 0 μM ≤ SC150 < 0.1 μM)
2,"CN1CCC(Nc2cccc3c2cc(-c2nnc(CNC(=O)C4CC4(F)F)s2)n3CC(F)(F)F)CC1 (racemic) [Compound 32B, (+/−)-2,2-difluoro-N-[(5-{4-[(1-methylpiperidin-4-yl)amino]-1-(2,2,2-trifluoroethyl)-1H-indol-2-yl}-1,3,4-thiadiazol-2-yl)methyl]cyclopropane-1-carboxamide]",** (** = 0.1 μM ≤ SC150 < 0.5 μM)
3,"CC(=O)NCc1nnc(-c2cc3c(NC4CCN(C)CC4)cccc3n2CC(F)(F)F)s1 [Compound 58B, N-[(5-{4-[(1-methylpiperidin-4-yl)amino]-1-(2,2,2-trifluoroethyl)-1H-indol-2-yl}-1,3,4-thiadiazol-2-yl)methyl]acetamide]",** (** = 0.1 μM ≤ SC150 < 0.5 μM)
4,"CC(C)(C)n1cc(C(=O)NCc2nc(-c3cc4c(N[C@H]5CCOC[C@H]5F)cccc4n3CC(F)(F)F)no2)cn1 [Compound 498B, 1-tert-butyl-N-{[3-(4-{[(3S,4S)-3-fluorooxan-4-yl]amino}-1-(2,2,2-trifluoroethyl)-1H-indol-2-yl)-1,2,4-oxadiazol-5-yl]methyl}-1H-pyrazole-4-carboxamide]",* (* = 0 μM ≤ SC150 < 0.1 μM)
5,"CC(C)(C)n1ccc(C(=O)NCc2nc(-c3cc4c(N[C@H]5CCOC[C@H]5F)cccc4n3CC(F)(F)F)no2)c1 [Compound 492B, 1-tert-butyl-N-{[3-(4-{[(3S,4S)-3-fluorooxan-4-yl]amino}-1-(2,2,2-trifluoroethyl)-1H-indol-2-yl)-1,2,4-oxadiazol-5-yl]methyl}-1H-pyrrole-3-carboxamide]",* (* = 0 μM ≤ SC150 < 0.1 μM)
6,"COC1CCC(n2ccc(C(=O)NCc3nc(-c4cc5c(N[C@@H]6CCN(C)C[C@@H]6F)cccc5n4CC(F)(F)F)no3)c2)C1 (stereo in doubt) [Compound 360B, N-{[3-(4-{[(3S,4R)-3-fluoro-1-methylpiperidin-4-yl]amino}-1-(2,2,2-trifluoroethyl)-1H-indol-2-yl)-1,2,4-oxadiazol-5-yl]methyl}-1-[(1R,3R)-3-methoxycyclopentyl]-1H-pyrrole-3-carboxamide]",* (* = 0 μM ≤ SC150 < 0.1 μM)
7,"COCCn1cc(C(=O)NCc2nc(-c3cc4c(N[C@@H]5CCN(C)C[C@@H]5F)cccc4n3CC(F)(F)F)no2)cn1 [Compound 290B, N-{[3-(4-{[(3S,4R)-3-fluoro-1-methylpiperidin-4-yl]amino}-1-(2,2,2-trifluoroethyl)-1H-indol-2-yl)-1,2,4-oxadiazol-5-yl]methyl}-1-(2-methoxyethyl)-1H-pyrazole-4-carboxamide]",* (* = 0 μM ≤ SC150 < 0.1 μM)
8,"CN1CC[C@@H](Nc2cccc3c2cc(-c2noc(CNC(=O)c4cncn4-c4ccccc4)n2)n3CC(F)(F)F)[C@@H](F)C1 [Compound 309B, N-{[3-(4-{[(3S,4R)-3-fluoro-1-methylpiperidin-4-yl]amino)-1-(2,2,2-trifluoroethyl)-1H-indol-2-yl)-1,2,4-oxadiazol-5-yl]methyl}-1-phenyl-1H-imidazole-5-carboxamide]",* (* = 0 μM ≤ SC150 < 0.1 μM)
9,"CN1CC[C@@H](Nc2cccc3c2cc(-c2noc(CNC(=O)c4ccc(C5(CO)CC5)s4)n2)n3CC(F)(F)F)[C@@H](F)C1 [Compound 486B, N-{[3-(4-{[(3S,4R)-3-fluoro-1-methylpiperidin-4-yl]amino}-1-(2,2,2-trifluoroethyl)-1H-indol-2-yl)-1,2,4-oxadiazol-5-yl]methyl}-5-[1-(hydroxymethyl)cyclopropyl]thiophene-2-carboxamide]",* (* = 0 μM ≤ SC150 < 0.1 μM)
10,"CC(CO)n1ccc(C(=O)NCc2nc(-c3cc4c(N[C@@H]5CCN(C)C[C@@H]5F)cccc4n3CC(F)(F)F)no2)c1 (stereo partly drawn) [Compound 237B, N-{[3-(4-{[(3S,4R)-3-fluoro-1-methylpiperidin-4-yl]amino}-1-(2,2,2-trifluoroethyl)-1H-indol-2-yl)-1,2,4-oxadiazol-5-yl]methyl}-1-(1-hydroxypropan-2-yl)-1H-pyrrole-3-carboxamide]",* (* = 0 μM ≤ SC150 < 0.1 μM)
11,CN1CC[C@@H](Nc2cccc3c2cc(-c2noc(CNC(=O)c4csc(N5CC6CC(C5)O6)n4)n2)n3CC(F)(F)F)[C@@H](F)C1 [Compound 525B],** (** = 0.1 μM ≤ SC150 < 0.5 μM)
12,"CN1CCC(Nc2cccc3c2cc(-c2nnc(CNC(=O)c4ccc(CN5CCOCC5)cc4)s2)n3CC(F)(F)F)CC1 [Compound 45B, N-[(5-{4-[(1-methylpiperidin-4-yl)amino]-1-(2,2,2-trifluoroethyl)-1H-indol-2-yl}-1,3,4-thiadiazol-2-yl)methyl]-4-[(morpholin-4-yl)methyl]benzamide]",* (* = 0 μM ≤ SC150 < 0.1 μM)
13,"CN(C)CC1(n2ccc(C(=O)NCc3nc(-c4cc5c(N[C@@H]6CCN(C)C[C@@H]6F)cccc5n4CC(F)(F)F)no3)c2)CC1 [Compound 482B, 1-{1-[(dimethylamino)methyl]cyclopropyl}-N-{[3-(4-{[(3S,4R)-3-fluoro-1-methylpiperidin-4-yl]amino}-1-(2,2,2-trifluoroethyl)-1H-indol-2-yl)-1,2,4-oxadiazol-5-yl]methyl}-1H-pyrrole-3-carboxamide]",* (* = 0 μM ≤ SC150 < 0.1 μM)
14,"COCc1cc(C(=O)NCc2nc(-c3cc4c(N[C@@H]5CCN(C)C[C@@H]5F)cccc4n3CC(F)(F)F)no2)cs1 [Compound 464B, N-{[3-(4-{[(3S,4R)-3-fluoro-1-methylpiperidin-4-yl]amino}-1-(2,2,2-trifluoroethyl)-1H-indol-2-yl)-1,2,4-oxadiazol-5-yl]methyl}-5-(methoxymethyl)thiophene-3-carboxamide]",* (* = 0 μM ≤ SC150 < 0.1 μM)
15,"CN1CC[C@@H](Nc2cccc3c2cc(-c2noc(CNC(=O)c4ccn(C(C)(C)C)c4)n2)n3CC(F)(F)F)[C@@H](F)C1 (racemic) [Compound 184B, (+/−)-tert-butyl-N-{[3-(4-{[(3R,4S)-3-fluoro-1-methylpiperidin-4-yl]amino}-1-(2,2,2-trifluoroethyl)-1H-indol-2-yl)-1,2,4-oxadiazol-5-yl]methyl}-1H-pyrrole-3-carboxamide]",* (* = 0 μM ≤ SC150 < 0.1 μM)

# Same assay, conditions: concentration to increase DNA binding by […], incubated at either 27° C. or 29° C. for 60 min
row,SMILES,SC150 (μM)
1,"O=S1(=O)CCC(Nc2cccc3c2cc(-c2cccc(Cl)c2)n3CC(F)(F)F)CC1 [Compound 12A, 4-{[2-(3-chlorophenyl)-1-(2,2,2-trifluoroethyl)-1H-indol-4-yl]amino}-1λ^6-thiane-1,1-dione]",++++ (++++ = 10 μM ≤ SC150 < 35 μM)
2,"N#Cc1ccc(C(=O)NCc2ccc(-c3cc4c(NC5CCS(=O)(=O)CC5)cccc4n3CC(F)(F)F)cc2)cc1 [Compound 16A, 4-cyano-N-[(4-{4-[(1,1-dioxo-1λ^6-thian-4-yl)amino]-1-(2,2,2-trifluoroethyl)-1H-indol-2-yl}phenyl)methyl]benzamide]",++ (++ = 2 μM ≤ SC150 < 5 μM)
